“And” between values parts separate entries of the source, which are not always exact repeats. Equal values may be shown once. Read-outs that look alike come from different tables or passages of the source.
Legend:
[1] = system: plant-derived fungi; assay: DMSO/miconazole dips, control of fungi on leaf-discs; settings: dipping of leaf-discs in 8% DMSO and 5 μg/ml miconazole
Method: There was no surface sterilization pretreatment; (2) discs were dipped several times in 20% DMSO, 8% DMSO or water (control). Discs were allowed to dry for a short time in the hood. […] Plates were covered with two fabric screens. […] Plates were covered with one fabric screen. In most experiments both incubators were used; […].

[2] = system: leaf-discs
Method: Protocol 1: Ethanol and sodium hypochlorite: The method comprised the following steps: (1) whole leaves (Leaf 2 or leaf 3) were excised from plants; (2) leaves were dipped in 500 ml of 70% EtOH for 10-20 sec; (3) leaves were immersed in 500 ml of 0.01%, 0.06% or 0.24% NaClO for varying periods of time (1-20 min) with and without agitation of the liquid; (4) leaves were washed three to four times in distilled water (500-ml) each; (5) leaves were patted dry with paper towels; and (6) discs are cut from these pretreated leaves.
Protocol 2: Ethanol and sodium hypochlorite: The method comprised the following steps: (1) leaf-discs (2.5-cm in diameter) were cut from leaf 2 (11.5-cm long) or leaf 3 from a 6-wk-old plants; (2) Discs were dipped in 500 ml of 70% EtOH for 10-20 sec; (3) Discs were immersed in 500 ml of 0.01%, 0.06% or 0.24% NaClO for varying periods of time (1-20 min) with and without agitation of the liquid; (4) Discs were washed three to four times in distilled water (500-ml) each; (5) Discs were patted dry with paper towels; (6) Discs were placed on GB+GBV agar plates, covered with a mesh lid, sealed with parafilm, and incubated agar side up; (7) In some experiments, GB-GBV plates were initially incubated agar side down to encourage root growth into the media. […]

[3] = system: plant-derived fungi; assay: Surface sterilization of leaves/leaf-discs with EtOH and sodium hypochlorite, control of fungi
Source text: Plates were covered with two fabric screens. […] Plates were covered with one fabric screen.

[4] = system: Brassica leaf-discs; assay: Phytohormone treatment, calli and root production from Brassica leaf-discs
Method: (§1) • 1. Leaf-discs (2.7-cm in diameter) were cut from Brassica leaves (Leaf #2, leaf #3) or eggplant leaves (see above). • 2. […] The discs were placed in Incubator B (higher humidity, higher light). Plates were covered with two fabric screens. • 4.

[5] = system: eggplant leaf-discs; assay: Phytohormone treatment, root production from eggplant leaf-discs
Method: as §1

[6] = system: leaf-discs; assay: DMSO spray and dips, tolerance by leaf-discs
Source text: There was no surface sterilization pretreatment; (2) discs were placed on GB+GBV agar plates; (3) disc were sprayed using a Preval Atomizer with 20% DMSO or water (control); (4) some plates were allowed to dry overnight in the hood. […] Plates were covered with two fabric screens. […] Plates were covered with one fabric screen.
There was no surface sterilization pretreatment; (2) discs were dipped several times in 20% DMSO, 8% DMSO or water (control). Discs were allowed to dry for a short time in the hood. […] Plates were covered with two fabric screens. […] Plates were covered with one fabric screen.

## Clc1ccc(COC(Cn2ccnc2)c2ccc(Cl)cc2Cl)c(Cl)c1 (stereo not drawn) [miconazole]
[1]
  slowing of growth of plant-derived fungi: 10 to 12 days

## [Na+].[O-]Cl [NaClO, sodium hypochlorite]
[2]
  damage to intact leaves or leaf-discs: No damage was evident
[3]; prewashing intact leaves with 70% EtOH and 0.24% NaClO, then cutting discs
  time for which appearance of fungi is prevented: 19 days
[3]; prewashing leaves or leaf-discs with 70% EtOH and 0.01% NaClO
  slowing of first appearance of fungi on agar plates: 1 to 2 days
[3]; prewashing with 70% EtOH and 0.06% NaClO
  slowing of first appearance of fungi on agar plates: 1 to 2 days

## O=C(O)Cc1cccc2ccccc12 [NAA, Napthalene Acetic Acid]
[4]; 0.1 mg/L NAA
  Roots first detected: 5 days
[4]; 1 mg/L NAA
  % plates with calli: 67%
[4]; 1 mg/L NAA, day 4
  roots per site: 1-3 roots per site and 1 roots per site and 1-2 roots per site
[4]; 1 mg/L NAA, day 5
  roots per site: 1-3 roots per site and 1-2 roots per site
[4]; 10 mg/L NAA
  % plates with calli: 100%
[4]; 10 mg/L NAA in GB + GBV, Incubator B
  Calli first day detected: 3 days
[4]; 10 mg/L NAA, day 4, discs 142B-1 to -3
  number of root sites per disc: 1 sites
[4]; 10 mg/L NAA, day 5
  roots per site: 2 per site and 1-3multiple per site and 1-3 per site
[4]; NAA 0.1 mg/L, day 5
  plates with roots: ⅔
[4]; NAA 1 mg/L, by day 4
  plates with roots: all three
[4]; NAA 10 mg/L, by day 4
  plates with roots: all three
[4]; NAA 0.1, 1.0 and 10 mg/L
  root sites and roots per site detected: Multiple root sites and multiple roots per site
[4]; NAA 0.1, 1.0 and 10 mg/L in GB+GBV
  effect on production of roots from Brassica leaf-discs: enhanced and accelerated the production of roots
[5]; NAA 0.1, 1.0 and 10 mg/L, within 5 d
  production of roots from eggplant leaf-discs: did not produce of roots

## C[S+](C)[O-] [DMSO, dimethyl sulfoxide]
[6]; dipping into 8% DMSO
  damage to leaf-discs: does not cause leaf-disc damage
[6]; dipping into 20% DMSO
  damage to leaf-discs: does not cause leaf-disc damage
[6]; direct spraying with 20% DMSO, two types of atomizers
  damage to leaf-discs: causes extensive damage

## Indole butyric acid [IBA]
[4]
  Calli first day detected: 4 days and 5 days
  Roots first detected: 5 days
  time in which leaf-discs produced roots: 5 to 6 days
[4]; 1.0 mg/L IBA
  detection of roots: occasionally detected
[4]; 2.5 mg/L IBA, day 5
  number of root sites per disc: 1 site
  roots per site: 1 root
[4]; 5 mg/L IBA
  % plates with calli: 67% and 100%
  Roots first detected: 5 days
[4]; 5 mg/L IBA, day 5
  number of root sites per disc: 2 sites
  roots per site: 3-4 roots per site
[4]; 7.5 mg/L IBA
  % plates with calli: 100%
  Roots first detected: 6 days
[4]; 10 mg/L IBA
  % plates with calli: 100%
  Roots first detected: 5 days
[4]; 10 mg/L IBA, day 5
  roots per site: 1-4 roots per site and 1 root per site roots per site
[4]; 10 mg/L IBA, day 6
  number of root sites per disc: 132B-2 10 sites and 132B-3 15 sites
[4]; 10 mg/L IBA, day 6, disc 132B-1
  roots total per disc: > 6d 132B-1 over 41 roots total
[4]; […]
  % plates with calli: 100%
[5]
  discs that formed roots: one
  time after which roots formed: 10 days
